Experimental data taken from PubChem BioAssay (NCI).
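Tested at 5 concentrations; 48 h exposure; 96-well plates; endpoints linearly interpolated, else capped at highest concentration. Here, GI50 denotes the concentration required for 50% inhibition of growth. The concentration for full growth arrest is given as TGI.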

Tested on: MDA-MB-468 breast
Test: inhibition of tumour cell growth, NCI panel, 48 h

| Structure (SMILES) | GI50 [nM] | TGI [µM] |
| --- | --- | --- |
| NC(=NCCCCCCN=C(N)/N=C(\N)Nc1ccc(Cl)cc1)/N=C(\N)Nc1ccc(Cl)cc1 | 952 | 2.28 |
| Cc1cc(N2CCC(N3CCCC3)CC2)nc(/N=C(\N)Nc2ccc(Cl)c(Cl)c2)n1 | 1400 | 2.73 |
| Cc1ccc(NCCNCC(C)(C)O)c2c(=O)c3ccc(Cl)cc3sc12 | 1700 | 3.24 |
| CN1C2C=CC(=O)C1C1C(=O)N(c3ccccc3)C(=O)C12 (stereo not drawn) | 2450 | 9.03 |
| CC[C@H](C)[C@H](NC(=O)[C@H]1CCCCN1C)C(=O)N(C)[C@H](CCc1nc(C(=O)N[C@@H](Cc2ccccc2)C[C@H](C)C(=O)O)cs1)C(C)C | 85 | > 25 |
| Nc1ccc(CC[C@H]2CCC/C=C/[C@@H]3C[C@H](O)C[C@H]3[C@H](O)/C=C/C(=O)O2)cc1 | 10.6 | 0.0374 |
| CC[C@H](C)[C@H](NC(=O)C12C3C4C1C1C2C3C41NC)C(=O)N(C)[C@H](C[C@@H](OC(C)=O)c1nc(C(=O)N[C@@H](Cc2ccccc2)C[C@H](C)C(=O)OC)cs1)C(C)C (stereo partly drawn) | 217 | > 5.49 |
| CCN(CC)CCOC(COc1cc(C)cc(C)c1)COc1cc(C)cc(C)c1 | 1740 | 3.55 |
| CCCCCCCCCCCC1N=C(N)N=C(N)N1c1cccc(Br)c1 (stereo not drawn) | 528 | 1.98 |
| COc1cccc(C2CC(=O)Nc3c2c(C)nn3-c2nc3ccccc3[nH]2)c1OC (stereo not drawn) | 4110 | 32.6 |
| O=C1C(Cl)=C(Nc2ccc(S(=O)(=O)c3ccc(NC4=C(Cl)C(=O)c5ccccc5C4=O)cc3)cc2)C(=O)c2ccccc21 | 1500 | 3.09 |
| [Br][Pb]([c]1ccccc1)([c]1ccccc1)[c]1ccccc1 | 148 | 0.294 |
| CCCCNc1ncnc2c1cnn2-c1ccccc1 | 2240 | 7.6 |
| CNC(=O)CCN1CCN(CC/C=C2\c3ccccc3Sc3ccc(Cl)cc32)CC1 | 3630 | 16.9 |
| COc1cc(C(=O)c2cnc(-c3c[nH]c4cccc(C)c34)[nH]2)cc(OC)c1OC | 2.64 | – |
| CC1(C)CC(O)CC(C)(C)N1O | > 100000 | > 100 |
| CCn1cc(C(=O)O)c(=O)c2cc(F)c(N3CCN(S(=O)(=O)c4ccc(Cl)cc4Cl)CC3)cc21 | 1980 | 5.5 |
| CN1CCCCC1CCN1c2ccccc2Sc2ccc(Br)cc21 (stereo not drawn) | 1780 | 3.65 |
| COc1cc(N=Nc2cc(Cc3ccc(N(C)C)cc3)c(N)cc2N(C)C)c2ncccc2c1 | 226 | 0.622 |
| Nc1nc(SCc2ccccc2CCl)c2[nH]cnc2n1 | 11900 | 30.8 |
| COC(=O)c1c(C)nc(C)c2c1C(=O)C(Br)=C(NCc1ccccc1)C2=O | 1110 | 2.75 |

| Structure (SMILES) | GI50 [nM] | TGI [µM] |
| --- | --- | --- |
| COc1cc2c(c(OC)c1OC)-c1cc(I)c(O)cc1[C@@H](NC(C)=O)CC2 | 24.3 | 0.0715 |
| N[C@@H]1CCCN(c2c(Br)cnc3[nH]cc(NC(=O)C4CC4)c23)C1 | 2110 | 36.2 |
| Nc1ncn([C@H]2CC(O)[C@@H](CO)S2)c(=O)n1 (stereo partly drawn) | 5800 | > 100 |
| CCn1c(-c2nonc2N)nc2ccccc21 | > 14900 | > 25 |
| Cc1cc(NC(=O)NCc2ccc(N3C(N)=NC(N)=NC3(C)C)cc2)ccc1S(=O)(=O)F | 7990 | > 100 |
| COc1ccc2nc3ccccc3c(NCCNCCO)c2c1 | 351 | 1.37 |
| [O]=[Sn]([CH]1CCCCC1)[CH]1CCCCC1 | 97.7 | 0.25 |
| Clc1ccc2c(NCCNc3nc(N4CCOCC4)nc4ccccc34)ccnc2c1 | 1910 | 4.53 |
| O=c1c(I)c[nH]cc1I | > 100000 | > 100 |
| COc1cc2ncn(-c3cc(OCc4ccccc4C(F)(F)F)c(C(N)=O)s3)c2cc1OC | 61.9 | 0.857 |
| CC1(C)N=C(N)N=C(N)N1c1ccc(CCCC(=O)Nc2ccc(S(=O)(=O)F)cc2)cc1 | 3330 | > 100 |
| O=C(Nc1cccc(-n2ccc3c(NC(=O)c4ccccc4)ncnc32)c1)Nc1ccc(Cl)c(C(F)(F)F)c1 | 1480 | 6.06 |
| Cc1ccc(S(=O)(=O)OC[C@@]2(C)CC[C@]3(C)CC[C@]4(C)C(=C3C2)C=C[C@@H]2[C@@]3(C)CCCNC(C)(C)[C@@H]3CC[C@]24C)cc1 | 1590 | 3.22 |
| CCN(CC)c1ccc(/C=N/NC(=O)Cc2ccc(Nc3ccnc(C(F)(F)F)c3)cc2)c(O)c1 | 588 | > 60.3 |
| Cn1c(=O)c(-c2ccccc2Cl)cc2cnc(NC3CCOCC3)nc21 | > 19900 | > 25 |
| Cc1ccc(-c2nc(NCCOCCOCCN)nc(N3CCN(c4ccccn4)CC3)n2)cc1 | 7040 | 18 |
| CC(=O)c1cc2c(N)c(C(=O)Nc3cccc4ccccc34)sc2nc1C | 1640 | 31.1 |
| CC[C@]12C=CCN3CC[C@]4(C(=C(C(=O)OC)C1)Nc1cc5c(cc14)[C@@H]1[C@H](O5)[C@@H](O)[C@@]4(CC)CC(C(=O)OC)=C5Nc6cc(O)ccc6[C@@]56CCN1C46)C32 (stereo partly drawn) | 38.4 | 1.51 |
| CN(C)CCCN1c2ccccc2Sc2ccc(C(F)(F)F)cc21 | 1250 | 2.65 |
| COc1cc(-c2nc(-c3ccccc3)c(-c3ccccc3)[nH]2)cc(OC)c1O | 15200 | 37.7 |
| O=C(/C=C/c1ccc(O)c(O)c1)N1CCN(c2ccc(Cl)cc2)CC1 | 2450 | 13 |
